Literature values as cited in patent US20110312981A1, “PREDICTIVE MARKER FOR EGFR INHIBITOR TREATMENT” (priority 2007, published 2011).
One block for each compound: values may come before it.

What was measured:
NSCLC = settings: second line therapy of NSCLC
[1] = system: NSCLC patients for whom standard therapy for advanced disease has failed; settings: single agent, versus placebo, BR.21
[2] = patients with cancer receiving the 150 mg/day dose
patients with NSCLC = settings: second line after cisplatin-based first-line regimens failed; ECOG 0, 1 or 2; versus best supportive care

Compound: Nc1nc2[nH]cc(CCc3ccc(C(=O)N[C@@H](CCC(=O)O)C(=O)O)cc3)c2c(=O)[nH]1 [pemetrexed]
efficacy compared with docetaxel (NSCLC): clinically equivalent efficacy
side effects compared with docetaxel (NSCLC): significantly fewer side effects

drug levels in plasma [2]: > 500 ng/mL
Compound: C#Cc1cccc(Nc2ncnc3cc(OCCOC)c(OCCOC)cc23)c1 [Tarceva, erlotinib]
survival [1]: significantly prolongs and improves the survival

Compound: CC(=O)O[C@@]12CO[C@@H]1C[C@H](O)[C@@]1(C)C(=O)[C@H](O)C3=C(C)[C@@H](OC(=O)[C@H](O)[C@@H](NC(=O)OC(C)(C)C)c4ccccc4)C[C@@](O)([C@@H](OC(=O)c4ccccc4)[C@H]21)C3(C)C [docetaxel]
survival (patients with NSCLC): improved survival
